Assay: solubility of IPN in process solvents (MXDA, liquid ammonia)
Assay type: physicochemical

Compound: N#Cc1cccc(C#N)c1 [IPN, 1,3-dicyanobenzene]
- solubility of IPN in MXDA (in MXDA at 70° C.): approx. 20 % by weight
- solubility of IPN in NH3 (in liquid ammonia (NH3) at 40° C.): approx. 45 % by weight
